Source: PMC7613998, “Development of selective inhibitors of phosphatidylinositol 3-kinase C2α” (Nature Chemical Biology, 2022)

Experiments:
Experiment in all cases: biochemical
Design in all cases: SelectScreen Z'-LYTE purified kinase panel, per cent inhibition, mean of two points
Conditions in all cases: (μM)=Km app
EGFR (ErbB1) L858R = EGFR (ErbB1) L858R (Homo sapiens, UniProt P00533, L858R)
MAPKAPK2 = MAPKAPK2 (Homo sapiens, UniProt P49137)
CSF1R (FMS) = CSF1R (FMS) (Homo sapiens, UniProt P07333)
CSF1R (FMS), sequence (P07333 whole entry): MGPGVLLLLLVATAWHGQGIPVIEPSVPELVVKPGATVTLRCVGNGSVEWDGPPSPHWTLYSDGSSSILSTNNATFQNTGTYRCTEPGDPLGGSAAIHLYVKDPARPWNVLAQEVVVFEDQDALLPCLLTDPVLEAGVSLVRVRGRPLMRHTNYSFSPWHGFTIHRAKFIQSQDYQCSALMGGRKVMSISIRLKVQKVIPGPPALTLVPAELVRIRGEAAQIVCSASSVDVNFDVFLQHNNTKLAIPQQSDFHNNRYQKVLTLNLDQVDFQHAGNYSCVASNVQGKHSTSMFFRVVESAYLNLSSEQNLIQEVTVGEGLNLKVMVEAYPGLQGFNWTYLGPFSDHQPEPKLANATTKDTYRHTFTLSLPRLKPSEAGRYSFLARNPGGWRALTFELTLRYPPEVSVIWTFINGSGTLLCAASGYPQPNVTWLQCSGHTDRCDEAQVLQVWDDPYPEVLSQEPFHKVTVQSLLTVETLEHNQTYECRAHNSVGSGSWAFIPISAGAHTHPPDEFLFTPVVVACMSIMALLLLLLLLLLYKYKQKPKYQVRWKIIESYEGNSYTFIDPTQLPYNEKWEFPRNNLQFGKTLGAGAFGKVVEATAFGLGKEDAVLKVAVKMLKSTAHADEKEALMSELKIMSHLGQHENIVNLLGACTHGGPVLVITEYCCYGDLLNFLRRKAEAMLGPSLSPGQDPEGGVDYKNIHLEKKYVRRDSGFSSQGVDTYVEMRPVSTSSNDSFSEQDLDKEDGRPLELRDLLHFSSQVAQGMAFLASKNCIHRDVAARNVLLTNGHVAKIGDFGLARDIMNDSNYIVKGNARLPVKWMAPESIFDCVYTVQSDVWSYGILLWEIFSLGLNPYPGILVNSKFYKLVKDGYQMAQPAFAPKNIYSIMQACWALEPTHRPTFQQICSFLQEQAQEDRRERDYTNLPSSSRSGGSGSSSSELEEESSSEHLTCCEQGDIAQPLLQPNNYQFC

CHEK1 (CHK1) = biological target: T1, CHEK1 (CHK1) (Homo sapiens, UniProt O14757)
T1 sequence (O14757 1-476): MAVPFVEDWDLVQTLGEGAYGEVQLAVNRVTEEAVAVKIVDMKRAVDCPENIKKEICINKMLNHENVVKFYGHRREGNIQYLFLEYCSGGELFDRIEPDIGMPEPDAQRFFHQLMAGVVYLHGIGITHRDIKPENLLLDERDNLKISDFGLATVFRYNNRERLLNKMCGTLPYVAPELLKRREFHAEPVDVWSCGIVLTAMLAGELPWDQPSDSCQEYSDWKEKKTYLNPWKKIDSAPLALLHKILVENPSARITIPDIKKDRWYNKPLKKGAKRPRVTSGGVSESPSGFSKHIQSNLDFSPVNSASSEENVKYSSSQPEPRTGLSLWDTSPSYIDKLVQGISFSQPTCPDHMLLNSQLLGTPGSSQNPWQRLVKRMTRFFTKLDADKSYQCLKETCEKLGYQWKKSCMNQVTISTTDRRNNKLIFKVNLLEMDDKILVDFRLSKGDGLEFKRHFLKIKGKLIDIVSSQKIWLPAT

PLK3 = PLK3 (Homo sapiens, UniProt Q9H4B4)
PLK3, sequence (Q9H4B4 whole entry): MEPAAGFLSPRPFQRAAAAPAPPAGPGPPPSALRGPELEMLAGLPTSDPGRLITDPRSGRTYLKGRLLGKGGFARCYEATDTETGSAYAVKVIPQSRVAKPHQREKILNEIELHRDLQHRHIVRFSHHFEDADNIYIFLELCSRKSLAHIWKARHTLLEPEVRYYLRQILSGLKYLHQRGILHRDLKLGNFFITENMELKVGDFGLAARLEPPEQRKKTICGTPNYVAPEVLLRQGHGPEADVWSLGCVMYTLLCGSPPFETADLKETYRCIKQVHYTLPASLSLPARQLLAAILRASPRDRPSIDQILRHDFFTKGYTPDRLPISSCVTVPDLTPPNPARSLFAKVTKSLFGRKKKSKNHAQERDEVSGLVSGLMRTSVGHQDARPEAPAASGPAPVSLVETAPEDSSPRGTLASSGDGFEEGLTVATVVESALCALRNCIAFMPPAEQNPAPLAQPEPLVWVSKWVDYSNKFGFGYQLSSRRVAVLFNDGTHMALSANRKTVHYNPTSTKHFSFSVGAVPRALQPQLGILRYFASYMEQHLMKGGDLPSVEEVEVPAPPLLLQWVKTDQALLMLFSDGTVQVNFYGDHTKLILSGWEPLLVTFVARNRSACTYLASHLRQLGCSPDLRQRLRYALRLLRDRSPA

MAPK11 (p38 beta) = MAPK11 (p38 beta) (Homo sapiens, UniProt Q15759)
MAPK11 (p38 beta), sequence (Q15759 whole entry): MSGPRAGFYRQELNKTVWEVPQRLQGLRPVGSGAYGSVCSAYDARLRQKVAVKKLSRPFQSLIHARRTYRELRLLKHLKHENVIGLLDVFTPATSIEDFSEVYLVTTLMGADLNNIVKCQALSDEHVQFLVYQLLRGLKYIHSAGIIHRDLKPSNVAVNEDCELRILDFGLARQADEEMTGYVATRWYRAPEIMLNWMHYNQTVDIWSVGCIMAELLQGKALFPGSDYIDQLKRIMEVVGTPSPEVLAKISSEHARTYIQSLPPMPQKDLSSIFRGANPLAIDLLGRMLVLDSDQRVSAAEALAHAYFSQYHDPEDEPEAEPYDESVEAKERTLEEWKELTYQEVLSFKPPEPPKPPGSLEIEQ

IKBKB (IKK beta) = biological target: T2, IKBKB (IKK beta) (Homo sapiens, UniProt O14920)
T2 sequence (O14920 1-756): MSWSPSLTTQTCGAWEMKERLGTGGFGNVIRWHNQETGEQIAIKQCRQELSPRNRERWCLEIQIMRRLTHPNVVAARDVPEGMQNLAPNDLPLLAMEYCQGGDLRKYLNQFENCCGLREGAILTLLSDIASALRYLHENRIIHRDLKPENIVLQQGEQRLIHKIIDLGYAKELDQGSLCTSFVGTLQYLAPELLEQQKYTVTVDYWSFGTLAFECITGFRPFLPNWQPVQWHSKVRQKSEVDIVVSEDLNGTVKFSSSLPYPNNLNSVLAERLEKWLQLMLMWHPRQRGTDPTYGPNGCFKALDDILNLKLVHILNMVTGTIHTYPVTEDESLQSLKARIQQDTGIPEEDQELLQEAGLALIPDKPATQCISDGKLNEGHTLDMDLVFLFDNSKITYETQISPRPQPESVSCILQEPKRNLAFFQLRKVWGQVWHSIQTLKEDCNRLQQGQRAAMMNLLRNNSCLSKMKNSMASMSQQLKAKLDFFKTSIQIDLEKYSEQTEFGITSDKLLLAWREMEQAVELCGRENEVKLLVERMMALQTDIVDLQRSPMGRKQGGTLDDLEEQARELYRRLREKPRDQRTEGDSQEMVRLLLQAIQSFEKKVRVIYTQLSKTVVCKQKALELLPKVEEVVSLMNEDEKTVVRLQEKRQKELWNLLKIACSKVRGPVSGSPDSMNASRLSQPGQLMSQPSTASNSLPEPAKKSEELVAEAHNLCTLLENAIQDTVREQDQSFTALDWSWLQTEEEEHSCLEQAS

ABL1 E255K = ABL1 E255K (Homo sapiens, UniProt P00519, E255K)
ABL1 E255K, sequence (P00519 whole entry E255K): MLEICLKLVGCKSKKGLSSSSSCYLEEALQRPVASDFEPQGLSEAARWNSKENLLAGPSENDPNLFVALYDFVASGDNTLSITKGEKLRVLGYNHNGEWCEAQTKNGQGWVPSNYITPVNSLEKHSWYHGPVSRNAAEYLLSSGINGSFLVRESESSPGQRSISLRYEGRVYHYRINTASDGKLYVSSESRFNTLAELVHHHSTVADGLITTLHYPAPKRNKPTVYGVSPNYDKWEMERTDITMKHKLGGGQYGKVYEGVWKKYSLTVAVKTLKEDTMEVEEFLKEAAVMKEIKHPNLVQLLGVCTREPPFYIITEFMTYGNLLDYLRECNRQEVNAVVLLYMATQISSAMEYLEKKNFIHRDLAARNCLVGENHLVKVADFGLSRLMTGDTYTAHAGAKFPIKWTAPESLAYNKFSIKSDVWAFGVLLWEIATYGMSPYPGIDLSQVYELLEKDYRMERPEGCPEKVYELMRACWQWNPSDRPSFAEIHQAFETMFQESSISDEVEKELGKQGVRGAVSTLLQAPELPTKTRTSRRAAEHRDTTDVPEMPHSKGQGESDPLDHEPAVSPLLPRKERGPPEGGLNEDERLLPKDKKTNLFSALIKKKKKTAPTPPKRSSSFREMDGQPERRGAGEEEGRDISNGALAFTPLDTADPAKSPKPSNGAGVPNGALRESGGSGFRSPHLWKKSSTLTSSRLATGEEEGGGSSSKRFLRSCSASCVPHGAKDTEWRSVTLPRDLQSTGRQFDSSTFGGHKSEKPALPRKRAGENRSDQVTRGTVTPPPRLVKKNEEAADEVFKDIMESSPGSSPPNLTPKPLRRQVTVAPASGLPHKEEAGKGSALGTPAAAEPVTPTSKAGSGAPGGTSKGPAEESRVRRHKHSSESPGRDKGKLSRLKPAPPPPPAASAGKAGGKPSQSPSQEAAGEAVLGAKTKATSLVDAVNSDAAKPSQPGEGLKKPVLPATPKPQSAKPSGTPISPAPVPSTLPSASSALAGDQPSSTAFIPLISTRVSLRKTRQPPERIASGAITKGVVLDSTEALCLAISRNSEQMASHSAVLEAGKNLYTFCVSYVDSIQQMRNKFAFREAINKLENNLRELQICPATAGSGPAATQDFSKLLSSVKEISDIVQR

MAPKAPK2, sequence (P49137 whole entry): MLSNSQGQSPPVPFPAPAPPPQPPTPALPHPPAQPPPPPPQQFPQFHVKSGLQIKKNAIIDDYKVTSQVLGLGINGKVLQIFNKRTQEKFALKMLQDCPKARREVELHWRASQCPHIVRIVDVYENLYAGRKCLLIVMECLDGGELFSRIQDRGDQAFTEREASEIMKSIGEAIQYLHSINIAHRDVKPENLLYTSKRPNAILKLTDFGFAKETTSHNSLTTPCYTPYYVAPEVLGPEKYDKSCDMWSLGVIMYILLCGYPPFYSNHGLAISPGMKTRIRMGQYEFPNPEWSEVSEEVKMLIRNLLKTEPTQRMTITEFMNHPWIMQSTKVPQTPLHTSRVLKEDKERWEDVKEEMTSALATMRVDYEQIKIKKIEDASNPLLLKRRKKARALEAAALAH
EGFR (ErbB1) L858R, sequence (P00533 whole entry L858R): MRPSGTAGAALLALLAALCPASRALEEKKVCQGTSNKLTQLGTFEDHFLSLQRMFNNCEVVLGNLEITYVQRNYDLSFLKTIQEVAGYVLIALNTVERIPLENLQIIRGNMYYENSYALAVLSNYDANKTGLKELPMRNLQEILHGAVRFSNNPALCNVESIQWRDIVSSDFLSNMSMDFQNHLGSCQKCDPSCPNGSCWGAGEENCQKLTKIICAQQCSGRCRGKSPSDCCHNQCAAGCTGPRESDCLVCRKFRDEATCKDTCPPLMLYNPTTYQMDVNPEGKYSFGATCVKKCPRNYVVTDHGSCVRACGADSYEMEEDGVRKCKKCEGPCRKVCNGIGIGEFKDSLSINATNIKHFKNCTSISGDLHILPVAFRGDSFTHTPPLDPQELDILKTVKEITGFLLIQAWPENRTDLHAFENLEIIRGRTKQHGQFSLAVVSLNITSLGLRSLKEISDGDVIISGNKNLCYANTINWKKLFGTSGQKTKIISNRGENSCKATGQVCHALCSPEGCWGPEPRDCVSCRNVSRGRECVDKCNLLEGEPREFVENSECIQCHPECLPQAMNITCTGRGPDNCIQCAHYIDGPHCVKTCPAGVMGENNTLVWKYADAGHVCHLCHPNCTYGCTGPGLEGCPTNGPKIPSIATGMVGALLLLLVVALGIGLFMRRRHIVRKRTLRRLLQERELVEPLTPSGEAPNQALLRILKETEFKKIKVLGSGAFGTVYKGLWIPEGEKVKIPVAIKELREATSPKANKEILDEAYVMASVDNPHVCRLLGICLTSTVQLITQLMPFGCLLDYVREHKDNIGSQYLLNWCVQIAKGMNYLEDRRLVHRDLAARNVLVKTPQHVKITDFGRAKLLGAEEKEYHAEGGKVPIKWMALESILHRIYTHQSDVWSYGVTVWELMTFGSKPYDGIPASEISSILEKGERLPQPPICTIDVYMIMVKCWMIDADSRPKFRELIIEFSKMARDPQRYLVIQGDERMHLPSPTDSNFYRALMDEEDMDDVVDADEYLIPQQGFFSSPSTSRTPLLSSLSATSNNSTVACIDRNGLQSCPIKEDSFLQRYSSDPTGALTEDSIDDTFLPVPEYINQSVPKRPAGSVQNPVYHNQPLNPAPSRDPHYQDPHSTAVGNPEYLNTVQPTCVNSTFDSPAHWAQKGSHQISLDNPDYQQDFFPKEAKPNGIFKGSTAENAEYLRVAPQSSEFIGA

inhibition at 1 µM (EGFR (ErbB1) L858R) [%]	inhibition at 3 µM (EGFR (ErbB1) L858R) [%]	inhibition at 10 µM (EGFR (ErbB1) L858R) [%]	inhibition at 1 µM (MAPKAPK2) [%]	inhibition at 3 µM (MAPKAPK2) [%]	inhibition at 10 µM (MAPKAPK2) [%]	inhibition at 1 µM (CSF1R (FMS)) [%]	inhibition at 3 µM (CSF1R (FMS)) [%]	inhibition at 10 µM (CSF1R (FMS)) [%]	inhibition at 1 µM (CHEK1 (CHK1)) [%]	inhibition at 3 µM (CHEK1 (CHK1)) [%]	inhibition at 10 µM (CHEK1 (CHK1)) [%]	inhibition at 1 µM (PLK3) [%]	inhibition at 3 µM (PLK3) [%]	inhibition at 10 µM (PLK3) [%]	inhibition at 1 µM (MAPK11 (p38 beta)) [%]	inhibition at 3 µM (MAPK11 (p38 beta)) [%]	inhibition at 10 µM (MAPK11 (p38 beta)) [%]	inhibition at 1 µM (IKBKB (IKK beta)) [%]	inhibition at 3 µM (IKBKB (IKK beta)) [%]	SMILES	further results
-0.259	2.85	-1.14	4.27	5.91	1.1	12.1	7.54	7.66	-13.5	-11.6	-3.01	3.02	3.24	5.6	9.02	8.06	7.22	8.34	4.24	O=C(CSc1nc2nccnc2c(=O)n1CCc1ccccc1)Nc1nccs1 [compound 1, PITCOIN1]	inhibition at 10 µM (IKBKB (IKK beta)): 4.15%; inhibition at 1 µM (ABL1 E255K): -2.31%; inhibition at 3 µM (ABL1 E255K): -1.35%; inhibition at 10 µM (ABL1 E255K): -2.49%
1.72	5.21	-1.6	0.509	3.08	6.37	10.1	14	13.3	-7.7	-2.83	-11.2	3.58	4.83	4.26	10.5	8.66	4.91	3.7	14.3	CS(=O)(=O)Nc1cccc(-c2csc(NC(=O)CSc3nc4nccnc4c(=O)n3CCc3ccccc3)n2)c1 [compound 3, PITCOIN3]	inhibition at 10 µM (IKBKB (IKK beta)): 12.2%; inhibition at 1 µM (ABL1 E255K): -1.49%; inhibition at 3 µM (ABL1 E255K): 2.48%; inhibition at 10 µM (ABL1 E255K): -1.01%
